Assay results reported in PubChem BioAssay (NCI).
Where “and” joins values, the source holds several entries; their conditions need not be identical. Identical values can stand only once.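 Grown in 96-well plates, cells were treated for 48 hours with each compound at five concentrations. Insufficient inhibition: endpoint recorded as highest concentration tested. GI50 marks 50% less growth. The concentration for full growth arrest is given as TGI.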

Assays:
Experiment in all cases: DTP human tumour cell line panel, 48 h
[1] = tested on: HCT-116 colon
[2] = tested on: MCF7 breast
[3] = tested on: 786-0 renal
[4] = tested on: SK-OV-3 ovarian
[5] = tested on: NCI-H226 lung
[6] = tested on: HCC-2998 colon
[7] = tested on: HL-60(TB) leukemia
[8] = tested on: MOLT-4 leukemia
[9] = tested on: SK-MEL-5 melanoma
[10] = tested on: IGROV1 ovarian

SMILES | GI50 [1] | TGI [1] | GI50 [2] | TGI [2] | GI50 [3] | TGI [3] | GI50 [4] | TGI [4] | GI50 [5] | TGI [5] | GI50 [6] | TGI [6] | TGI [7] | GI50 [8] | TGI [8] | GI50 [9] | TGI [9] | GI50 [10] | TGI [10] | GI50 [7]
CCN(CC)CCCC(C)Nc1cnc(C(=O)Nc2cc(F)cc3cccnc23)cn1 (centres undefined) | 2.7 µM and 0.35 µM | 10.1 µM and 1.23 µM | 2.1 µM | 6.91 µM | 8.17 µM and 1.33 µM | 22 µM and 2.7 µM | 14 µM and 1.68 µM | 27.7 µM and 3.68 µM | 4.71 µM and 1.99 µM | 18.5 µM and 4.13 µM | 5.01 µM and 1.53 µM | 18.4 µM and 2.97 µM | 25.6 µM and 31.3 µM | 1.94 µM and 0.496 µM | 6.53 µM and > 43 µM | 1.78 µM and 1.58 µM | 3.37 µM and 2.95 µM | 3.03 µM and 0.379 µM | 12 µM and 1.4 µM | 
CCS(=O)(=O)c1ccc(OC)c(Nc2nccc(N(C)c3ccc4c(C)[nH]nc4c3)n2)c1 | 8.69 µM | > 25 µM | 9.16 µM | > 25 µM | 5.79 µM | 18.4 µM | 5.03 µM | 17.8 µM | 1.85 µM | > 21.1 µM | 8.18 µM | > 25 µM | 18.9 µM | 6.71 µM | > 25 µM | 4 µM | 8.38 µM | 3.97 µM | 16.5 µM | 7.37 µM
CCOC(=O)[C@@H](C)C[C@H](Cc1ccccc1)NC(=O)c1csc([C@@H](C[C@H](C(C)C)N(C)C(=O)[C@H](CCC(C)C)NC(=O)[C@H]2CCCCN2C)OC(C)=O)n1 | 0.00424 µM | 8.17 µM | < 0.00333 µM | 6.3 µM | 0.0135 µM | 5.53 µM | 0.00929 µM | 9.26 µM | 0.0495 µM | 11.6 µM | < 0.00333 µM | 4.28 µM | 0.0104 µM | 0.0167 µM | 5.1 µM | < 0.00333 µM | 0.0927 µM | 0.00335 µM | 29.8 µM | < 0.00333 µM
Cc1nc(NC(=S)Nc2ccc(F)cc2)sc1C(=O)NNC(=S)Nc1ccc(F)cc1 | 7.93 µM | > 100 µM | 3.72 µM | 32.7 µM | 21.9 µM | 89.1 µM | 15.7 µM | 61.6 µM | 14.1 µM | 57.8 µM | 6.6 µM | 22.5 µM | 27.8 µM | 3.33 µM | > 100 µM | 3.5 µM | 15.2 µM |  |  | 3.68 µM
CCc1ccc(CCC(=O)Nc2ncc(Cc3ccccc3)s2)o1 | 1.05 µM | > 100 µM | 0.515 µM | > 100 µM | 6.95 µM | > 100 µM | 2.81 µM | > 100 µM | 53.2 µM | > 100 µM | 3.24 µM | > 100 µM | 4.38 µM | 2.43 µM | > 100 µM | 1.16 µM | > 100 µM | 3.24 µM | > 100 µM | 1.53 µM
COC[C@H]1OC(=O)c2coc3c2[C@@]1(C)C1=C(C3=O)[C@@H]2CCC(=O)[C@@]2(C)C[C@H]1OC(C)=O |  | > 100 µM |  | > 100 µM |  | > 100 µM | 2.22 µM | 23.5 µM | 11 µM | > 100 µM |  | 20 µM | 53.7 µM |  | 42.3 µM |  | 61 µM |  | 19.3 µM | 2.98 µM
C=C(CN1CCN(c2ccccc2F)CC1)c1ccc(C(=O)Nc2ccccc2N)cc1 | 0.957 µM | 13.5 µM | 0.889 µM | > 100 µM | 1.88 µM | > 100 µM | 7.73 µM | > 100 µM | 2.34 µM | 17.3 µM | 3.2 µM | 17.7 µM | 2.87 µM | 0.549 µM | 4.86 µM | 1.51 µM | 16.8 µM | 0.571 µM | 4.96 µM | 0.353 µM
O=C(Nc1ccc(Nc2ccncc2)cc1)c1ccc(Nc2ccnc3ccc([N+](=O)[O-])cc23)cc1 | > 100 µM | > 100 µM | > 100 µM | > 100 µM | > 100 µM | > 100 µM | > 100 µM | > 100 µM | > 100 µM | > 100 µM | > 100 µM | > 100 µM | > 100 µM | > 100 µM | > 100 µM | 71.4 µM | > 100 µM |  |  | > 100 µM
Cc1cc2c(C(N)=O)cccc2n1-c1nc2c(c(NCc3ccccc3)n1)CCCN2 | 0.0831 µM | 0.631 µM | 0.0853 µM | 0.747 µM | 0.248 µM | 0.519 µM | 0.32 µM | 0.813 µM | 0.158 µM | 0.332 µM | 0.17 µM | 0.325 µM | 1.01 µM | 0.241 µM | 1.16 µM | 0.0598 µM | 0.181 µM | 0.194 µM | 0.439 µM | 0.228 µM
COc1ccc(C(=O)c2cc(OC)c(OC)c(OC)c2)cc1O | 0.0376 µM | > 100 µM | 0.0327 µM | > 100 µM | 0.914 µM | > 100 µM | 0.395 µM | > 100 µM | 4.76 µM | > 100 µM | 0.0832 µM | > 100 µM | 0.0557 µM | 0.0367 µM | > 100 µM | 0.0439 µM | 0.315 µM | 0.278 µM | > 100 µM | 0.0103 µM
COc1ccc(C2=C(c3cn(C)c4ccccc34)C(=O)NC2=O)cc1OC | 6.68 µM | > 25 µM | 5.75 µM | > 25 µM | 8.28 µM | > 25 µM | 6.72 µM | > 25 µM | 10.8 µM | > 25 µM | > 22.3 µM | > 25 µM | 17.2 µM | 8.84 µM | > 25 µM | 6.11 µM | > 22.3 µM | 7.99 µM | > 25 µM | 6.27 µM
O=C(N/N=C/c1ccc(O)cc1O)c1ccc(Nc2ccnc(C(F)(F)F)c2)cc1 | 39.1 µM | > 100 µM |  | > 100 µM | 31.2 µM | > 100 µM | 9.67 µM | > 80.1 µM | 26.4 µM | > 100 µM | > 75.2 µM | > 100 µM | > 100 µM |  |  | > 100 µM | > 100 µM | 21.6 µM | > 100 µM | > 34.1 µM
NC1CCC[C@@H](O)[C@H]1O (some centres undefined) |  | > 100 µM |  | > 100 µM |  | > 100 µM |  | > 100 µM |  | > 100 µM |  | > 100 µM | > 100 µM |  |  |  | > 100 µM |  | > 100 µM | 
